{"source": "patent US12265087B2", "about": "“Olfactory receptor as microglia marker and use thereof” (DAEGU GYEONGBUK INSTITUTE OF SCIENCE AND TECHNOLOGY, priority 2019, dated 2025)", "key": {"[1]": {"test_system": "Hana3A cells expressing Olfr111", "assay": "Boyden chamber chemotaxis assay, Hana3A cells expressing Olfr111", "format": "cell-based", "conditions": "2-PF 10, 100 and 1000 μM", "procedure": "Chemotaxis was measured using a multi-well Boyden chamber. More specifically, a polycarbonate filter (8 μm pore; #101-8; Neuroprobe) was coated with […] fibronectin (Sigma-Aldrich) in PBS for 2 hours, and the coated filter was installed in a Boyden chamber. In addition, the bottom side of a plate was filled with serum-free DMEM containing 2-PF or a culture supernatant. Subsequently, microglia or Hana3A cells were transfected with an OR construct, and then suspended in serum-free DMEM. The microglia were kept at 37° C. for 4 hours, and the Hana3A cells for 8 hours. Cells that migrated to the bottom surface were fixed with 4% PFA, and stained with hematoxylin for 10 minutes. The migrated cells were counted under a light microscope in five randomly selected fixed […] fields (200×) using a scored eyepiece. A chemotaxis index was defined as the migrated cell number normalized against the untreated group."}, "primary microglia [2]": {"test_system": "primary microglia", "assay": "mRNA-sequencing of primary microglia (DEGs, GOBP)", "format": "cell-based, mouse", "conditions": "Sup MOI 100 or 2-PF 100 μM, 2 hours", "procedure": "After a vehicle (control), Sup (MOI 100) or 2-PF (100 μM) treatment for 2 hours, total RNA was isolated from 2×10^6 cells of primary microglia using a RNeasy miniKit (Qiagen, 74104), and analyzed using a Qubit RNA HS assay kit (Thermo Fisher Scientific, Q32852) according to the manufacturer's standard protocol for quantification. The RNA integrity number (RIN) of each sample was measured using the Agilent Technologies 2100 BioAnalyzer, and the RINs of all samples were 8.5 or more, which is suitable for mRNA sequencing. Full-length cDNA was generated using a SMARTer-Seq v4 Ultra Low input RNA Kit (Clontech, 634888) according to the manufacturer's recommended protocol. The first strand synthesis of cDNA was initiated from 10 ng total RNA by adding 1 μl of 3′ SMART CDS primer II A for 3 minutes at 72° C. […] After PCR, the DNA library was purified using AMPure beads and quality was assessed by an Agilent 2100 Bioanalyzer. A DNA library of each sample was quantified using a KAPA library quantification kit (KAPA Biosystems, KK4854) and then pooled. All libraries were sequenced using an Illumina Hiseq2500 instrument to generate dual-indexed 100-bp paired reads, thereby obtaining an average of 58 million reads for each sample. […] The remaining reads were aligned to the mouse reference genome (GRCm38) using TopHat (Trapnell et al., 2009) with default options. […]"}, "primary microglia [3]": {"test_system": "primary microglia", "assay": "Boyden chamber chemotaxis of primary microglia", "format": "cell-based, mouse", "conditions": "100, 300 and 500 μM", "procedure": "In this example, microglia or astrocytes were primarily extracted from the cerebral cortex of E18.5 mouse embryos (Tamashiro et al., 2012), and cultured as described in Example 1. More specifically, the mouse embryonic cortex was collected, stored in a cold supernatant (#14170-112; Thermo Fisher Scientific), and pretreated in a 0.25% trypsin solution (#15090-046; Thermo Fisher Scientific) at 37° C. for 20 minutes. Afterward, cells were plated in a minimum nutrient medium supplemented with 10% FBS (#SH30919.03; Hyclone), 2 mM L-glutamine (#25030-081; Thermo Fisher Scientific), 0.04% glucose (#G7021; Sigma Aldrich), and 1% penicillin/streptomycin (#15140-122; Thermo Fisher Scientific), and filtered through a […] strainer (#352340; Thermo Fisher Scientific). The microglia were plated at a density of 1.2×10^7 cells in a T75 flask coated with poly-D-lysine (#P7280; Sigma Aldrich). […] Purities of the collected microglia and astrocytes were evaluated by qRT-PCR assay and immunocytochemistry using a marker gene and proteins such as Iba-1 and Gfap.\nChemotaxis was measured using a multi-well Boyden chamber. […] The migrated cells were counted under a light microscope in five randomly selected fixed […] fields (200×) using a scored eyepiece. […]"}}, "data": [{"smiles": "CCCCCc1ccco1", "note": "[2-PF, 2-pentylfuran]", "values": [{"measurement": "mobility of Olfr111 cells (chemotaxis assay)", "setting": "[1]", "value": "increased in mobility in a concentration-dependent manner"}, {"measurement": "genes regulated (mRNA-seq)", "setting": "primary microglia [2]", "value": "up-regulate genes involved in microglial activation"}, {"measurement": "chemotaxis", "setting": "primary microglia [3]", "value": "significantly increased in a concentration-dependent manner"}]}]}
